Measured values reported in patent US5876715A, “Antibodies that bind novel carbohydrate ligands (myelorollins) that cause E-selectin dependent cell rolling, and uses thereof” (The Biomembrane Institute, priority 1996, dated 1999).
Entries after “also recorded” stand apart in the source; their conditions may differ.

How the values were obtained:
[1] = system: E-selectin-expressing CHO cells; assay: Static adhesion assay using 96-well plates coated with gangliosides; type: cell-based, Chinese hamster; details: static conditions, ganglioside coated on 96-well plates (25 to 200 ng), [3H]thymidine-labeled cells, control with mAb E1C
Excerpt: Adhesion of E-selectin-expressing CHO cells to various quantities of poly-LacNAc gangliosides coated on 96-well plates (Falcon, Becton-Dickinson, Lincoln Park, N.J.). Points represent mean experimental minus control value in the presence of mAb E1C, ±SE of triplicate experiments. .circle-solid.SLe^x -Le^x, Δ Fr. 10-1, .tangle-solidup. Fr. 10-2, .quadrature. Fr. 9, .smallcircle. Fr. 12-2.
Static adhesion assay using 96-well plates: Poly-LacNAc gangliosides with SLe^x -Le^x structure and Frs. 9, 10-1, 10-2 and 12-2, dissolved in 50% ethanol, were serially diluted in 96-well plates (the first well contained 200 ng), and plates were dried at 37° C. for 5 hr. Plates with similar serial dilutions of poly-LacNAc gangliosides were prepared for control cell adhesion in the presence of mAb E1C (see above). E-selectin-expressing CHO cells (Handa et al., Int. J. Oncol. 6:773-781 (1995)) were metabolically labeled with [^3 H] thymidine and incubated for 2 days. Cell suspension (2×10^6 per mL) was prepared by 2 mM EDTA treatment of cultured cells. A 50 μL aliquot of this cell suspension (containing 1×10^5 cells; approximately 5000 cpm) was added to each well and incubated for 1 hr. As a control, EDTA-harvested cells were washed with DMEM and incubated with mAb E1C on ice for 30 min, followed by preparation of cell suspension as above, but containing 10 μg mAb E1C per mL. Aliquots were added to each well and incubated as above. Cells were washed 3× with PBS by inversion of the plate on blotting paper. Adherent cell count as measured by ^3 H activity was determined.
Additional details of the experiment whose data are shown in FIGS. 1A and 1B are as follows: SLe^x -Le^x and poly-LacNAc gangliosides (Frs. 7, 9, 10-1, 10-2, 12-2, 13-1 and 14) dissolved in 50% ethanol were appropriately diluted and coated on wells of 96-well plates (amounts of 25 to 200 ng as shown on abscissa). Wells were dried at 37° C. for 5 hr. Two identical plates (1 and 2) were prepared in this way. To each well of plate 1, 50 μL aliquots of RPMI containing 1×10^5 E-selectin-expressing CHO cells metabolically labeled with [^3 H] thymidine were added. To each well of plate 2, aliquots of the same cell preparation preincubated with anti-E-selectin mAb E1C (10 μg Ig per mL) and suspended in RPMI containing mAb E1C were added. Plates 1 and 2 were incubated for 25 min. and washed with PBS. […] Each well was filled with 200 μL of PBS, carefully shaken, and plates were inverted on blotting paper for 10 min. All non-adherent cells were sedimented and absorbed on the blotting paper. Adherent cells remaining on wells were counted. Cell numbers (expressed on ordinate) were calculated based on measured radioactivity. Solid circle, SLe^x -Le^x without E1C (from plate 1). Open circle, SLe^x -Le^x with E1C (from plate 2). Adhesion values from various poly-LacNAc gangliosides with and without E1C were all near zero and cannot be distinguished on the graph.
Static adhesion assay using 96-well plates: Poly-LacNAc gangliosides with SLe^x -Le^x structure, and Fr. 9, 10-1, 10-2, and 12-2, dissolved in 50% ethanol, were serially diluted in 96-well plates (the first well contained […]), and plates were dried at 37° C. for 5 hr. Plates with similar serial dilutions of poly-LacNAc gangliosides were prepared for control cell adhesion in the presence of mAb E1C […] (see above). E-selectin-expressing CHO cells (Handa et al., 1995, Int. J. Oncol. 6:773-781) were metabolically labeled with [^3 H]thymidine and incubated for 2 days. Cell suspension (2×10^6 per mL) was prepared by 2 mM EDTA treatment of cultured cells. A 50 μL aliquot of this cell suspension (containing 1×10^5 cells; about 5000 cpm) was added to each well and incubated for 1 hr. As a control, EDTA-harvested cells were washed with DMEM and incubated with mAb E1C (10 μg/ml) on ice for 30 min, followed by preparation of cell suspension as above, but containing 10 μg E1C per mL. Aliquots were added to each well and incubated as above. […]

[2] = system: CHO cells permanently expressing E-selectin; details: TLC overlay, Stroud et al. 1995, 1996; cited from earlier work

| Substance | adhesion of E-selectin-expressing CHO cells [1] | adhesion of E-selectin-expressing CHO cells ([1]; listed as SLE^x -Le^x) | E-selectin binding/adhesion under static conditions in previous studies [2] |
| --- | --- | --- | --- |
| VIII^3 NeuAcIII^3 FucnLc8 Cer [Fr. 10-2] | little or no adhesion |  |  |
| VIII^3 NeuAcV^3 FucnLc8 Cer [Fr. 10-1] | little or no adhesion |  |  |
| VI^3 NeuAcV^3 FucIII^3 FucnLc6 Cer [SLe^x -Le^x, reference compound] | much stronger adhesion than myelorollin (Frs. 13-1 and 14); also recorded: capable of binding E-selectin expressing cells | bound to E-selectin |  |
| VI^3 NeuAcnLc6 Cer [Fr. 7] | little or no adhesion |  |  |
| X^3 NeuAcVII^3 FucV^3 FucnLc10 Cer [Fr. 13-1] |  |  | capable of binding E-selectin under static conditions |
| X^3 NeuAcVII^3 FucnLc10 Cer [Fr. 12-2] | little or no adhesion |  |  |
